Reference: patent US20090247768A1, “CRYSTALLINE SULFONAMIDE-CONTAINING INDOLE COMPOUND AND PROCESS FOR PREPARING THE SAME” (priority 2003, published 2009)

Assay: Solid stability against light (impurity content by HPLC after storage)
Assay type: physicochemical
Settings: for Impurity content (%): HPLC; for change in impurity content before and after storage: 25° C./1000 Lx, 1 month and 3 months
Experimental: Column: ODS column (inner diameter=4.6 mm, column length=250 mm, particle size=5 μm) Column temperature: 30° C. Detection wavenumber: 282 nm Flow rate: 1.0 mL/min Mobile phase: Solution A: CH3CN/H2O/70% HClO4=100/900/1 (v/v/v) Solution B: CH3CN/H2O/70% HClO4=900/100/1 (v/v/v)
All of the peaks and peak areas were calculated from the chromatogram, and the impurity amount for each peak (except for the peak of N-(3-cyano-4-methyl-1H-indol-7-yl)-3-cyanobenzenesulfonamide) was calculated according to the following formula.
Individual impurity content (%)=(individual impurity peak area)/(total of all peak areas)×100
Peaks with impurity contents of 0.05% or greater were recorded as impurity peaks, and their total was recorded as the impurity content of the crystals.
Impurity content (%)=Total of individual impurity contents (%)
The crystals obtained in Example 1C, Example 1E and Example 1F were stored for 1 month and 3 months at 25° C./1000 Lx (LT-120D3J Light Stability Tester by Nagano Science, Japan), and then the impurity contents were measured by HPLC.
HPLC was conducted under the same conditions as in Test Example 1, except that elution was performed with the gradient program shown in Table 14.
The impurity content of the crystals was determined by the same method as described for Test Example 1. […] That is, the crystals obtained in Examples 1F and 1C (Form A and Form C) clearly had higher stability against light.

[1] = solid crystals stored at 25° C./1000 Lx/1 month
[2] = solid crystals stored at 25° C./1000 Lx/3 months

Row | Impurity content (%) [1] | Impurity content (%) [2] | change in impurity content before and after storage (solid crystals) | Impurity content (%) (solid crystals, before storage) | Compound
1 | 0.41% | 0.51% | no change | 0.42% | Cc1ccc(NS(=O)(=O)c2cccc(C#N)c2)c2[nH]cc(C#N)c12 [Example 1F, N-(3-cyano-4-methyl-1H-indol-7-yl)-3-cyanobenzenesulfonamide]
2 | 0.51% | 0.51% | no change | 0.51% | Cc1ccc(NS(=O)(=O)c2cccc(C#N)c2)c2[nH]cc(C#N)c12 [Example 1C, N-(3-cyano-4-methyl-1H-indol-7-yl)-3-cyanobenzenesulfonamide]
3 | 0.83% | 4.44% | increased | 0.50% | Cc1ccc(NS(=O)(=O)c2cccc(C#N)c2)c2[nH]cc(C#N)c12 [Example 1E, N-(3-cyano-4-methyl-1H-indol-7-yl)-3-cyanobenzenesulfonamide]
